# From patent US20030212015A1, “Specific modulation of Th1/Th2 cytokine expression by ribavirin in activated T-lymphocytes” (priority 1996, published 2003)
# Legend:
# Assay type in all cases: cell-based, human
# IL-2 in CD8+ T cells = assay: Intracellular IL-2 expression in activated CD8+ T cells (two-color flow cytometry); conditions: PMA/ionomycin alone 81%, one experiment, FIG. 5
# Experimental: (§1) T-cells were activated by the addition of 500 ng ionomycin and 10 ng phorbol 12-myristate 13-acetate (PMA) (Calbiochem, La Jolla, Calif.) and incubated for 48-72 h at 37° C. PMA/ionomycin-activated T-cells were treated with 0.5-50 μM Ribavirin or with 250-10000 U/ml of a control antiviral, interferon-alpha (Accurate, Westbury, N.Y.) immediately following activation and re-treated 24 h later. T-cells from each plate were used for immunofluorescence analysis and the supernatants used for extracellular cytokine measurements. Following activation, 900 μl cell supernatant from each microplate was transferred to another microplate for analysis of cell-derived cytokine production. The cells are then used in immunofluorescence analyses for intracellular cytokine levels and cytokine receptor expression.
# (§2) For analyses of the intracellular expression of IL-2 in CD4^+ and CD8^+ T cell subsets, T cells were first treated for the last 4 h of 48-72 h activation with 10 μg Brefeldin A (Gibco BRL, Gaithersburg, Md.) to minimize secretion of newly synthesized IL-2 into the extracellular milieu. […]
# (§3) We examined whether the effect of Ribavirin on IL-2 expression was specific to CD4^+ or CD8^+ T cells. Intracellular IL-2 expression in fixed and Permeabilized activated T cells was determined by two-color flow cytometry using fluorescence-labeled antibodies to CD4 or CD8 and to IL-2. […]
# IL-4 mRNA = IL-4 mRNA in PMA/ionomycin-activated T cells (RT-PCR); conditions: FIG. 3
# Experimental: as §1, with “expression. […]” for “expression.”
# (§4) The PCR reaction was performed using GeneAmp PCR kit (Perkin-Elmer Cetus, Foster City, Calif.). […] PCR products were analyzed on 2% agarose gel containing ethidium bromide. […] Equivalent loading was assessed following hybridization with a probe generated from pHE7 sense primer. Washed blots were then analyzed using Phosphorlmager.
# IL-4 = assay: Extracellular IL-4 levels in PMA/ionomycin-activated T cells (ELISA)
# Experimental: (§5) Peripheral blood mononuclear cells (PBMCs) were isolated from the buffy coat following Ficoll-Hypaque density gradient centrifugation of 60 ml blood from healthy donors. T-cells were then purified from the PBMCs using Lymphokwik lymphocyte isolation reagent specific for T-cells (LK-25T, One Lambda, Canoga Park Calif.). An average yield of 40-60×10^6 T-cells were then incubated overnight at 37° C. in 20-30 ml RPMI-AP5 (RPMI-1640 medium (ICN, Costa Mesa, Calif.) containing 20 mM HEPES buffer, pH 7.4, 5% autologous plasma, 1% L-glutamine, 1% penicillin/streptomycin and 0.05% 2-mercaptoethanol) to remove any contaminating adherent cells. In all experiments, T-cells were washed with RPMI-AP5 and then plated on 96-well microtitre plates at a cell concentration of 1×10^6 cells/ml.
# (§6) T-cells were activated by the addition of 500 ng ionomycin and 10 ng phorbol 12-myristate 13-acetate (PMA) (Calbiochem, La Jolla, Calif.) and incubated for 48-72 h at 37° C. […]
# (§7) Cell-derived human cytokine concentrations were determined in cell supernatants from each microplate. Activation-induced changes in interleukin-2 (IL-2) levels were determined using a commercially available ELISA kit (R & D systems Quantikine kit, Minneapolis, Minn.) or by bioassay using the IL-2-dependent cell line, CTLL-2 (ATCC, Rockville, Md.). […]
# IL-2 in CD4+ T cells = assay: Intracellular IL-2 expression in activated CD4+ T cells (two-color flow cytometry); conditions: PMA/ionomycin alone 82%, one experiment, FIG. 5
# Experimental: as §1, §2, §3
# IL-2 = assay: Extracellular IL-2 levels in PMA/ionomycin-activated T cells (ELISA or CTLL-2 bioassay)
# Experimental: as §5, §6, §7
# IFNγ mRNA = IFNγ mRNA in PMA/ionomycin-activated T cells (RT-PCR); conditions: FIG. 3
# Experimental: as §1, with “expression. […]” for “expression.”
# as §4
# TNFα = assay: Extracellular TNFα levels in PMA/ionomycin-activated T cells (ELISA)
# Experimental: as §5, §6, §7
# IL-2 (CD25) receptor = assay: Cell surface IL-2 receptor expression in activated T cells (FACS); conditions: compared to control activated T cells, FIG. 4
# Experimental: as §1, with “The cells are then used in immunofluorescence analyses for intracellular cytokine levels and cytokine receptor expression.” left out
# (§8) For direct staining with fluorescence-conjugated antibodies to cell surface antigens, the cells were washed twice with isotonic saline solution, pH 7.4 (Becton Dickinson, Mansfield, Mass.) and resuspended in 50 μl isotonic saline solution and split into two samples. One sample aliquot was co-stained with either PE-anti CD25/FITC-anti CD4 or PE-rat anti mouse IgG+anti-CDw124/FITC-anti CD4 mAb and non-specific fluorescence was assessed by staining the second aliquot with PE/FITC-labeled isotype-matched control monoclonal antibody. All fluorescence-labeled monoclonal antibodies were obtained from Becton Dickinson (San Jose, Calif.) except for anti-CDw124 which was obtained from Pharmingen, San Diego, Calif. […]
# IL-4 (CDw124) receptor = assay: Cell surface IL-4 receptor expression in activated T cells (FACS); conditions: compared to control activated T cells, FIG. 4
# Experimental: as §1, with “The cells are then used in immunofluorescence analyses for intracellular cytokine levels and cytokine receptor expression.” left out
# as §8
# IL-2 mRNA = IL-2 mRNA in PMA/ionomycin-activated T cells (RT-PCR); conditions: FIG. 3
# Experimental: as §1, with “expression. […]” for “expression.”
# as §4
# [1] = 2, 5 and 10 μM following T cell activation
# [2] = range 250-10000 U/ml, dose-dependent, compared to untreated activated T cells
Compound,percentage of CD8+ expressing IL-2 (IL-2 in CD8+ T cells; 10 μM),effect on IL-4 mRNA (IL-4 mRNA; [1]),"inhibition at 2 µM (IL-4; Homo sapiens, T-cell, at 2 μM, read-out: peak inhibition of activated levels of IL-4)",percentage of CD4+ T cells expressing IL-2 (IL-2 in CD4+ T cells; 10 μM),"maximal augmentation of activated levels of IL-2 (IL-2; at 5 μM (dose range 0.5-50 μM), PMA/ionomycin-activated T cells, 48-72 h, representative experiment, FIG. 1)",effect on IFNγ mRNA (IFNγ mRNA; [1]),"maximal augmentation of activated levels of TNFα (TNFα; at 20 μM (dose range 0.5-50 μM), PMA/ionomycin-activated T cells, 48-72 h, representative experiment, FIG. 1)",effect on activated levels of IL-2 receptor (IL-2 (CD25) receptor; 1-50 μM),effect on activated levels of IL-4 receptor (IL-4 (CDw124) receptor; 1-50 μM),effect on IL-2 mRNA (IL-2 mRNA; [1]),percentage of IL-2-expressing CD8+ cells (IL-2 in CD8+ T cells; 5000 U/ml),"effect on IL-4 mRNA (IL-4 mRNA; 1000, 2000 and 5000 U/ml)",maximal increase of extracellular IL-4 (IL-4; 10000 U/ml),percentage of IL-2-expressing CD4+ cells (IL-2 in CD4+ T cells; 5000 U/ml),maximal inhibition of IL-2 expression (IL-2; [2]),"effect on IFNγ mRNA (IFNγ mRNA; 1000, 2000 and 5000 U/ml)",maximal inhibition of TNFα expression (TNFα; [2]),"effect on IL-2 receptor expression (IL-2 (CD25) receptor; 250-10000 U/ml, dose-dependent)","effect on IL-4 receptor expression (IL-4 (CDw124) receptor; 250-10000 U/ml, dose-dependent)","effect on IL-2 mRNA (IL-2 mRNA; 1000, 2000 and 5000 U/ml)"
"NC(=O)c1ncn([C@@H]2O[C@H](CO)[C@@H](O)[C@H]2O)n1 [Ribavirin, 1-β-D-ribofuranosyl-1,2,4-triazole-3-carboxamide]",91%,decreases,74%,91%,30%,has no effect,36%,little effect,little effect,elevates,–,–,–,–,–,–,–,–,–,–
interferon-α,–,–,–,–,–,–,–,–,–,–,71%,increases,26%,81%,33%,decreases,38%,decreased,increased,decreases
